# Laboratory results: patent US20150252329A1, “METHODS AND APPARATUS FOR CULTURING CILIATED CELLS” (THE UNIVERSITY OF NORTH CAROLINA AT CHAPEL HILL, priority 2012, published 2015)
# Test system: human airway epithelial cells
# Assay: CBF and MCT speed of HAE cells cultured in the MCTD after stimulation by ATPγS
# Assay type: cell-based
# Conditions: HAE cell cultures with circular MCT in the MCTD; 1 mM ATPγS in buffer added to apical surface; average of four experiments/donors; p<0.05 vs carrier and baseline
# Text: An MCT culturing device (MCTD) and the MCT system (MCTS) generally configured as shown for the MCTD 100 and MCTS 10 were constructed. The MCTD was constructed on a 30 mm Millicell™ cell culture insert (Millipore, Ireland). The base of an approximately 15 mm diameter central cylinder of cell culture compatible material (nylon, polystyrene) was attached to the center interior of the cell culture insert with an inert, silicone-based sealer. The approximately 4.0 mm outer ring or track defined in the bottom of the cell culture insert between the central cylinder and the cell culture insert was then coated with human Type IV collagen at ˜90 μg/cm^2, air-dried, and UV-irradiated. […] Cultures were examined at the time of media change and the extent of ciliation and the development of continuous, circular transport was recorded. […] High speed videos were recorded from four equally spaced positions around the MCTD. Ciliary beat frequency (CBF) was determined by whole field analysis using the SAVA™ software program (Sisson, Stoner et al. 2003), and the speed and direction of particle transport were determined by tracking particles of debris in the mucus. Alternatively, a small volume of fluid (0.5 μl) containing fluorescent beads was added to the mucus layer, and after equilibration (5-10 minutes), the motion of the fluorescent beads was recorded and analyzed using fluorescent microscopy. […]
structure (smiles),measurement,value
Nc1ncnc2c1ncn2[C@@H]1O[C@H](COP(=O)(O)OP(=O)(O)OP(O)(O)=S)[C@@H](O)[C@H]1O [ATPγS],MCT speed (mucociliary transport),significantly increased
same,ciliary beat frequency (CBF),significantly increased
